Laboratory results: US20100004267A1, “LIQUID PREPARATION” (ASUBIO PHARMA CO., LTD., priority 2006, published 2010)

Columns and labels:
aorta of rat = assay: Blood vessel stimulus and precipitation at administration site (Test example 2); format: in vivo
Method: Saline, a solution in saline to which 0.1% of Tween80 was added, and a solution in saline to which 0.5, 1.0, 2.0 or 3.0% of β-cyclodextrin sulfobutyl ether sodium salt dissolving various concentrations described in Table 2 below of SUN N8075 were prepared, and administered to aorta of rat, and precipitation of SUN N8075 and presence of stimulus (blood vessel stimulus) on tissues at the site of administration were evaluated.

[1] = Examination on two-component antioxidant sodium bisulfite/L-cysteine hydrochloride monohydrate (Test example 6); format: physicochemical
Method: According to the formulation of Tables 7 and 8, to 100-150 mL of purified water, sodium bisulfite (Japanese Pharmacopoeia; available from JUNSEI CHEMICAL), L-cysteine hydrochloride monohydrate (available from Nacalai Tesque), and SUN N8075 were added and dissolved in this order, and the volume was made precisely to 200 mL by addition of purified water.
After filtering under reduced pressure, the solution was bubbled with nitrogen gas for 5 minutes (not executed for the case “without nitrogen gas replacement”), and 20 mL of the solution was immediately filled into a brown ampule (Silicoat ampule, brown, 20 mL capacity, available from FUJI GLASS CO., LTD.) replaced with nitrogen gas (not executed for the case “without nitrogen gas replacement”), and then the ampule was sealed. Using autoclave (FLC-M09S30WZ, available from SAKURA SEIKI Co., Ltd.), autoclave sterilization was conducted in a setting condition: 121° C./24 minutes.
For each sample, insoluble foreign matters and odor were evaluated.
Evaluation of insoluble foreign matters was conducted using an appearance checker (under 1,000 Lux).
Also dissolved oxygen concentration in solution was measured.

[2] = Reduction in surface activity in SUN N8075 aqueous solution (Test example 7); format: physicochemical; set-up: key: A: In 20 minutes; B: In 60 minutes; C: 60 minutes to 3 days; D: Comparable to Control
Method: (§1) Into each test compound solution which was prepared in advance to achieve each adding concentration shown in the Table, SUN N8075 was added and dissolved so that the concentration thereof was 5 mg/mL, and the pH value was adjusted to 3 to 4 as appropriate by hydrochloric acid to prepare a sample solution.
(§2) Each 10 mL of sample solution was put into a 10-mL stoppered test tube, and shaken 30 strokes vertically by hand and allowed to stand upright, and under room diffused light, appearance of sample solution after shaking, foaming property (foaming quantity), defoaming time, post standing observation (after standing for 3 days or more) were evaluated.
(§3) As a control, an aqueous solution containing no test substance but containing 5 mg/mL of SUN N8075 was examined in a similar manner.

[3] = as above; format: physicochemical; set-up: key: A: Much less foaming than Control; B: Clearly less foaming than Control; Slightly less foaming than Control; D: Comparable to Control; E: More foaming than Control
Method: as §1, §2, §3

[4] = 0.1% Tween80 in saline, drug conc. 0.23 mg/mL, 72 hour
[5] = 0.1% Tween80 in saline, drug conc. 0.7 mg/mL, 72 hour
[6] = 0.5% Captisol in saline, drug conc. 0.7 mg/mL, 24 hour
[7] = 1.0% Captisol in saline, drug conc. 0.7 mg/mL, 24 hour
[8] = 2.0% Captisol in saline, drug conc. 0.7 mg/mL, 24 hour
[9] = 3.0% Captisol in saline, drug conc. 0.23 mg/mL, 72 hour
[10] = 3.0% Captisol in saline, drug conc. 0.7 mg/mL, 72 hour
[11] = no solubilizing agent in saline, drug conc. 0.23 mg/mL, 72 hour
[12] = no solubilizing agent in saline, drug conc. 0.7 mg/mL, 72 hour
[13] = no solubilizing agent in saline, drug conc. 2.3 mg/mL, 72 hour
[14] = sodium bisulfite 0.05% (0.1 g), L-cysteine HCl monohydrate 0.05 g (ratio 1/2), N2 done, dissolved oxygen 0.91 ppm
[15] = sodium bisulfite 0.05% (0.1 g), L-cysteine HCl monohydrate 0.1 g (ratio 1/1), N2 done, dissolved oxygen 0.88 ppm
[16] = sodium bisulfite 0.075% (0.15 g), L-cysteine HCl monohydrate 0.1 g (ratio 2/3), N2 done, dissolved oxygen 1.66 ppm
[17] = sodium bisulfite 0.075% (0.15 g), L-cysteine HCl monohydrate 0.5 g (ratio 1/1), N2 done, dissolved oxygen 0.97 ppm
[18] = sodium bisulfite 0.1% (0.2 g), L-cysteine HCl monohydrate 0.1 g (ratio 1/2), N2 done, dissolved oxygen 1.27 ppm
[19] = sodium bisulfite […] (0.05 g), L-cysteine HCl monohydrate 0.05 g (ratio 1/1), N2 done, dissolved oxygen 0.82 ppm

- Blood vessel stimulation (aorta of rat; [4]): Detected
- Precipitation at administration site (aorta of rat; [4]): None*^2
- Blood vessel stimulation (aorta of rat; [5]): Detected
- Precipitation at administration site (aorta of rat; [5]): None*^2
- Blood vessel stimulation (aorta of rat; [6]): None
- Precipitation at administration site (aorta of rat; [6]): None*^2
- Blood vessel stimulation (aorta of rat; [7]): None
- Precipitation at administration site (aorta of rat; [7]): None*^2
- Blood vessel stimulation (aorta of rat; [8]): None
- Precipitation at administration site (aorta of rat; [8]): None*^2
- Blood vessel stimulation (aorta of rat; [9]): None
- Precipitation at administration site (aorta of rat; [9]): None*^2
- Blood vessel stimulation (aorta of rat; [10]): None
- Precipitation at administration site (aorta of rat; [10]): None*^2
- Blood vessel stimulation (aorta of rat; [11]): Detected
- Precipitation at administration site (aorta of rat; [11]): Detected*^1
- Blood vessel stimulation (aorta of rat; [12]): Detected
- Precipitation at administration site (aorta of rat; [12]): Detected*^1
- Blood vessel stimulation (aorta of rat; [13]): Detected
- Precipitation at administration site (aorta of rat; [13]): Detected*^1
- Amount of insoluble matters/after sterilization ([1]; sodium bisulfite 0.05% (0.1 g), L-cysteine HCl monohydrate 0.03 g (ratio 3/10), N2 done, dissolved oxygen 1.85 ppm): bit
- Amount of insoluble matters/after sterilization [1, 14]: great
- Odor/After sterilization [1, 14]: Sulfur-
- Amount of insoluble matters/after sterilization [1, 15]: great
- Odor/After sterilization [1, 15]: Sulfur-
- Amount of insoluble matters/after sterilization ([1]; sodium bisulfite 0.05% (0.1 g), no L-cysteine HCl monohydrate, N2 done, dissolved oxygen 0.82 ppm): bit
- Amount of insoluble matters/after sterilization ([1]; sodium bisulfite 0.075% (0.15 g), L-cysteine HCl monohydrate 0.05 g (ratio 1/3), N2 done, dissolved oxygen 1.39 ppm): Bit
- Amount of insoluble matters/after sterilization [1, 16]: great
- Odor/After sterilization [1, 16]: Sulfur-
- Amount of insoluble matters/after sterilization [1, 17]: great
- Odor/After sterilization [1, 17]: Sulfur-
- Amount of insoluble matters/after sterilization ([1]; sodium bisulfite 0.075% (0.15 g), no L-cysteine HCl monohydrate, N2 done, dissolved oxygen 1.24 ppm): bit
- Amount of insoluble matters/after sterilization [1, 18]: great
- Odor/After sterilization [1, 18]: Sulfur
- Amount of insoluble matters/after sterilization ([1]; sodium bisulfite 0.1% (0.2 g), no L-cysteine HCl monohydrate, N2 done, dissolved oxygen 1.39 ppm): bit
- Amount of insoluble matters/after sterilization ([1]; sodium bisulfite 0.1% (0.2 g), no L-cysteine HCl monohydrate, N2 not done, dissolved oxygen 5.14 ppm): bit
- Amount of insoluble matters/after sterilization ([1]; sodium bisulfite […] (0.05 g), L-cysteine HCl monohydrate 0.015 g (ratio 3/10), N2 done, dissolved oxygen 1.88 ppm): Bit
- Amount of insoluble matters/after sterilization [1, 19]: great
- Odor/After sterilization [1, 19]: Sulfur-
- Amount of insoluble matters/after sterilization ([1]; sodium bisulfite […] (0.05 g), no L-cysteine HCl monohydrate, N2 done, dissolved oxygen 0.52 ppm): bit
- Defoaming time ([2]; Chlorobutanol 0.50%): C
- Defoaming time ([2]; Chlorobutanol […]): C
- Defoaming time ([2]; Ethanol 1.00%): C
- Defoaming time ([2]; Glycine 100 mM): C
- Defoaming time ([2]; Meglumine 25 mM): C
- Defoaming time ([2]; Methane sulfonic acid 15 mM): C
- Defoaming time ([2]; Propylene glycol 1.00%): C
- Defoaming time ([2]; Sodium L-glutamate 30 mM): C
- Defoaming time ([2]; Sodium chloride 50 mM): C
- Defoaming time ([3]; Chlorobutanol 0.10%): D
- Defoaming time ([3]; Sodium chloride 25 mM): D
SMILES: Cc1cc(OC[C@@H](O)CN2CCN(c3ccc(Cc4ccc(F)cc4)cc3)CC2)c(C)c(C)c1N [SUN N8075, (2S)-1-(4-amino-2,3,5-trimethylphenoxy)-3-{4-[4-(4-fluorobenzyl)phenyl]-1-piperazinyl}-2-propanol dimethane sulfonate]
